According to the NIST ThermoML archive (doi:10.1021/je050050p):

Experiment: xn = mol fraction of the nth substance listed
Settings: Liquid, Vibrating tube method

CN(C)C=O [dimethylformamide] + O=C=O
Settings | mass density [kg/m3]
323.07 K, 21005 kPa, x2 = 0.6235 | 955.83
323.07 K, 22029 kPa, x2 = 0.6235 | 957.78
323.07 K, 23012 kPa, x2 = 0.6235 | 959.63
323.07 K, 24020 kPa, x2 = 0.6235 | 961.47
323.07 K, 24979 kPa, x2 = 0.6235 | 963.24
323.08 K, 11047 kPa, x2 = 0.8091 | 888.99
323.08 K, 12004 kPa, x2 = 0.8091 | 893.47
323.08 K, 13042 kPa, x2 = 0.8091 | 898.2
323.08 K, 14006 kPa, x2 = 0.8091 | 902.33
323.08 K, 15005 kPa, x2 = 0.8091 | 906.31
323.08 K, 16016 kPa, x2 = 0.8091 | 910.13
323.08 K, 16989 kPa, x2 = 0.8091 | 913.66
323.08 K, 18023 kPa, x2 = 0.8091 | 917.28
323.08 K, 18997 kPa, x2 = 0.8091 | 920.57
323.08 K, 20018 kPa, x2 = 0.8091 | 923.89
323.08 K, 21002 kPa, x2 = 0.8091 | 927.01
323.08 K, 22041 kPa, x2 = 0.8091 | 930.23
323.08 K, 22980 kPa, x2 = 0.8091 | 933.13
323.08 K, 23989 kPa, x2 = 0.8091 | 936
323.08 K, 25049 kPa, x2 = 0.8091 | 939.12
323.09 K, 7005 kPa, x2 = 0.4268 | 942.62
323.09 K, 7062 kPa, x2 = 0.4461 | 942.94
323.09 K, 7958 kPa, x2 = 0.4461 | 944.11
323.09 K, 8007 kPa, x2 = 0.4268 | 943.86
323.09 K, 9005 kPa, x2 = 0.4268 | 944.97
323.09 K, 9022 kPa, x2 = 0.4461 | 945.39
323.09 K, 9996 kPa, x2 = 0.4268 | 946.2
323.09 K, 9998 kPa, x2 = 0.4461 | 946.6
323.09 K, 11005 kPa, x2 = 0.4461 | 947.83
323.09 K, 11020 kPa, x2 = 0.4268 | 947.43
323.09 K, 12000 kPa, x2 = 0.4268 | 948.52
323.09 K, 12017 kPa, x2 = 0.9311 | 797.65
323.09 K, 12039 kPa, x2 = 0.4461 | 949.09
323.09 K, 13002 kPa, x2 = 0.4461 | 950.23
323.09 K, 13010 kPa, x2 = 0.9311 | 810.33
323.09 K, 13035 kPa, x2 = 0.4268 | 949.74
323.09 K, 14007 kPa, x2 = 0.4268 | 950.83
323.09 K, 14007 kPa, x2 = 0.4461 | 951.42
323.09 K, 14016 kPa, x2 = 0.9311 | 821.48
323.09 K, 14996 kPa, x2 = 0.4461 | 952.54
323.09 K, 15005 kPa, x2 = 0.9311 | 831.25
323.09 K, 15007 kPa, x2 = 0.4268 | 951.95
323.09 K, 15987 kPa, x2 = 0.4268 | 952.99
323.09 K, 16001 kPa, x2 = 0.4461 | 953.67
323.09 K, 16036 kPa, x2 = 0.9311 | 840.41
323.09 K, 16984 kPa, x2 = 0.4268 | 954.11
323.09 K, 17004 kPa, x2 = 0.4461 | 954.83
323.09 K, 17025 kPa, x2 = 0.9311 | 848.46
323.09 K, 17998 kPa, x2 = 0.4268 | 955.17
323.09 K, 18000 kPa, x2 = 0.4461 | 955.98
323.09 K, 18021 kPa, x2 = 0.9311 | 855.96
323.09 K, 18994 kPa, x2 = 0.4461 | 957.05
323.09 K, 19034 kPa, x2 = 0.9311 | 863.06
323.09 K, 19040 kPa, x2 = 0.4268 | 956.31
323.09 K, 20010 kPa, x2 = 0.9311 | 869.5
323.09 K, 20031 kPa, x2 = 0.4461 | 958.19
323.09 K, 20050 kPa, x2 = 0.4268 | 957.38
323.09 K, 21020 kPa, x2 = 0.4461 | 959.24
323.09 K, 21029 kPa, x2 = 0.9311 | 875.82
323.09 K, 21048 kPa, x2 = 0.4268 | 958.44
323.09 K, 22009 kPa, x2 = 0.9311 | 881.6
323.09 K, 22029 kPa, x2 = 0.4461 | 960.34
323.09 K, 22041 kPa, x2 = 0.4268 | 959.46
323.09 K, 23008 kPa, x2 = 0.4461 | 961.38
323.09 K, 23037 kPa, x2 = 0.4268 | 960.49
323.09 K, 23050 kPa, x2 = 0.9311 | 887.36
323.09 K, 23995 kPa, x2 = 0.9311 | 892.39
323.09 K, 24019 kPa, x2 = 0.4461 | 962.44
323.09 K, 24061 kPa, x2 = 0.4268 | 961.52
323.09 K, 25007 kPa, x2 = 0.4461 | 963.48
323.09 K, 25036 kPa, x2 = 0.4268 | 962.52
323.09 K, 25056 kPa, x2 = 0.9311 | 897.78
323.1 K, 7005 kPa, x2 = 0.4502 | 942.87
323.1 K, 7058 kPa, x2 = 0.4068 | 942.59
323.1 K, 8007 kPa, x2 = 0.4068 | 943.65
323.1 K, 8009 kPa, x2 = 0.4502 | 944.1
323.1 K, 9003 kPa, x2 = 0.4502 | 945.32
323.1 K, 9034 kPa, x2 = 0.4068 | 944.82
323.1 K, 10001 kPa, x2 = 0.4068 | 945.91
323.1 K, 10005 kPa, x2 = 0.4502 | 946.57
323.1 K, 11002 kPa, x2 = 0.4502 | 947.78
323.1 K, 11013 kPa, x2 = 0.4068 | 947.04
323.1 K, 12000 kPa, x2 = 0.4068 | 948.11
